Our source for the IC50 values is patent US7671061B2, “Methods and compositions for treating pain” (Hydra Biosciences, Inc., priority 2005, dated 2010).

For the first test, the target named is T1, hTRPA1 (Homo sapiens, UniProt O75762, K186N).
T1 construct: expressed in transfected cells; host or cells: HEK293/TREx (Invitrogen), induced with tetracycline
T1 sequence (O75762 whole entry K186N): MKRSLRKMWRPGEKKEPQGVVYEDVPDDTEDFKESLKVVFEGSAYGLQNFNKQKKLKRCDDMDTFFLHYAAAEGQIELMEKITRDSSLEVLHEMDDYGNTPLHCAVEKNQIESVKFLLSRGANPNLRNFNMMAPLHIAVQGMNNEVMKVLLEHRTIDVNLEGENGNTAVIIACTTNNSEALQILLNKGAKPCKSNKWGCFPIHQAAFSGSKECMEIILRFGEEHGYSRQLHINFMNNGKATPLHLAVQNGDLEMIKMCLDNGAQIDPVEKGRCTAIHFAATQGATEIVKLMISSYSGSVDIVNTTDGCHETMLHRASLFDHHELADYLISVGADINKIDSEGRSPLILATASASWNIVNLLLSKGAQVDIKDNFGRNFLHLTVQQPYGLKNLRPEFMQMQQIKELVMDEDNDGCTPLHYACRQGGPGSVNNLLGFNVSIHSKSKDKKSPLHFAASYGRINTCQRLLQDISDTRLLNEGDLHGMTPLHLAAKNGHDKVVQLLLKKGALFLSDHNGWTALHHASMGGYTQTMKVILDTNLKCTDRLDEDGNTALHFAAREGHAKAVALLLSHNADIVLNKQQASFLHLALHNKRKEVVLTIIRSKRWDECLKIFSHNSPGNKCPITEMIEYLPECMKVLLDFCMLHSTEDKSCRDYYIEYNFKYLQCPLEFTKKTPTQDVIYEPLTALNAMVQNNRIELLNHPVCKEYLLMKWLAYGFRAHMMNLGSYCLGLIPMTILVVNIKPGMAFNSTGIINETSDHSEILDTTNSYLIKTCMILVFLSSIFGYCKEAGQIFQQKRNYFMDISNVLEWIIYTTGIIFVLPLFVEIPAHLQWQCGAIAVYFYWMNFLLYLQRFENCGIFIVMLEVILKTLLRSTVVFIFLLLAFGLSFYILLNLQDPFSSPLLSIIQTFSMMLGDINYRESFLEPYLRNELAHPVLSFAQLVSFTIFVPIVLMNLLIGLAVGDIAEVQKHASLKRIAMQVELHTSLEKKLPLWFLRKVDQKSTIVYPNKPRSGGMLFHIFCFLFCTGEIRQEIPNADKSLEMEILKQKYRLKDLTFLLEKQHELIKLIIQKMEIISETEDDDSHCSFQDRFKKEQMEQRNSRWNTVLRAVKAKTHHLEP
Briefly: High throughput Ca2+ fluorescence (Fluo4) assay, AITC stimulation. It is filed as cell-based. The following applies: Table 1; read-out: hTRPA1 Fluo4 IC50. The source says:
The assay depended on detection of the rise in intracellular Ca^2+ concentration ([Ca^2+]i) following channel activation in cells inducibly expressing the TRPA1 channel. Ca^2+ rise was quantified with the use of fluorescent Ca^2+ indicators that were loaded into cells and thereafter indicated the [Ca^2+]i. Ca^2+ influx followed activation of the TRPA1 channel. Compounds inhibiting the [Ca^2+]i rise were considered hits for further investigation.
These cells were maintained in the growth medium recommended by the manufacturer supplemented with 100 μg/ml hygromycin to promote retention of the TRPA1 construct. After growing to near confluency, cells were plated at a density of ˜25,000 cells/well in 384 well CellBind plates (Corning) in the presence of 1 μg/ml tetracycline, and allowed to grow for 20-30 hrs. A nearly confluent monolayer resulted. Cells were then loaded with Ca^2+ dye: Fura-2/AM or Fluo4/AM was added to the wells to a final concentration of 2 μM or 1 μM, respectively, and incubated for 80 min or 60 min, respectively, at room temperature. […] Frames were acquired at a rate of 0.2 Hz. During the assay, the plates were continuously […], with pipette mixing of wells following addition of each reagent. For the screening assay, 13 μl of a diluted stock (at 50 μM) was added to each well for 2 minutes following the collection of a short (4 frame) baseline. […] Data was collected for ˜3 minutes following addition of AITC, where the fluorescent intensity (for Fluo4) and the F340/F380 ratio (for Fura-2) were proportional to the [Ca^2+]i. Negative controls consisted of HEK293/TREx TRPA1 cells exposed to AITC, but no compound. […] These controls defined a screening window, and “hits” were defined as those compounds inhibiting the fluorescence response by at least 40%. IC50 values were determined for compounds defined as “hits.” The Fluo4 cell-based fluorescence assay was used to determine the intracellular Ca^2+ concentration in the presence of varying drug concentration. […] Compounds were tested in triplicate at all concentrations. Standard software was used to fit IC50 curves.
As for `CCCC1=C(C(=O)OCC)C(c2cccc([N+](=O)[O-])c2)NC(=O)N1C` (stereo not shown), the IC50 is over 10 µM.

On to `COc1cc(Br)cc(C2NC(=S)NC(C)=C2C(=O)N(C)C)c1OC` (stereo not shown), for which the IC50 was over 10 µM.

On to `CCOC(=O)C1=C(c2ccccc2)NC(=O)NC1c1ccc(CC)cc1` (stereo not shown), for which the IC50 is at most 10 µM.

With `CC1=C(C(=O)OC(C)C)C(c2cccc(Br)c2)NC(=O)N1` (stereo not shown), the IC50 is over 10 µM.

With `CCOC(=O)C1=C(C)N(CC)C(=O)NC1c1ccccc1Cl` (stereo not shown), the 50% inhibitory concentration (IC50) is at least 20 µM.

For the molecule `CCOC(=O)C1=C(C)NC(=S)NC1c1ccc(OC(C)C)cc1` (stereo not shown), the IC50 was over 10 µM.

`CC1=C(C(=O)OCc2ccccc2)C(c2ccc(C(C)C)cc2)NC(=O)N1` (stereo not shown): the IC50 was over 10 µM.

With `CC1=C(C(=O)OC2CCCCC2)C(c2ccc(F)cc2)NC(=O)N1` (stereo not shown), the IC50 was over 10 µM.

As to `CCOC(=O)C1=C(CN2CCc3ccccc32)NC(=O)NC1c1cccc([N+](=O)[O-])c1` (stereo not shown), the concentration for half-maximal inhibition (IC50) is over 10 µM.

In the case of `COC(=O)C1=C(CN2CCCCC2)NC(=O)NC1c1ccc(C)cc1C` (stereo not shown), the IC50 is over 10 µM.

On to `CCN1C(=O)NC(c2ccccc2Br)C(C(=O)OC)=C1C` (stereo not shown), for which the IC50 is over 10 µM.

Turning to `CC1=C(C(=O)OC2CCCCCC2)C(c2cccc(Cl)c2)NC(=O)N1` (stereo not shown), the IC50 was over 10 µM.

For `CC1=C(C(=O)OC2CCCC2)C(c2ccc(C)c(Br)c2)NC(=O)N1` (stereo not shown), the IC50 was over 10 µM.

With `CCOc1ccccc1C1NC(=O)NC(C)=C1C(=O)OC` (stereo not shown), the IC50 is over 10 µM.

Turning to `COc1cc(OC)c(C2NC(=S)NC(C)=C2C(=O)N(C)C)cc1Br` (stereo not shown), the IC50 is over 10 µM.

For `COc1cccc(C2NC(=S)NC(C)=C2C(=O)OCc2ccccc2)c1` (stereo not shown), the IC50 was over 10 µM.

For `CCN(CC)C(=O)C1=C(C)NC(=S)NC1c1ccccc1Cl` (stereo not shown), the IC50 was over 10 µM.

On to `COC(=O)C1=C(C)N(C)C(=O)NC1c1ccc(C(C)(C)C)cc1` (stereo not shown), for which the IC50 was over 10 µM.

For `CC1=C(C(=O)OC2CCCCCC2)C(c2cccc(C)c2)NC(=O)N1` (stereo not shown), the IC50 is over 10 µM.

With `CC1=C(C(=O)OC2CCCC2)C(c2ccccc2Cl)NC(=O)N1C` (stereo not shown), the IC50 is over 10 µM.

Turning to `COC(=O)C1=C(C)NC(=S)NC1c1ccc(OC(C)C)cc1` (stereo not shown), the IC50 was over 10 µM.

For the molecule `CC1=C(C(=O)OCc2ccc(C)cc2)C(c2ccccc2F)NC(=O)N1` (stereo not shown), the IC50 was over 10 µM.

As for `CCOC(=O)C1=C(CN2CCC(C)CC2)NC(=O)NC1c1ccc(Cl)cc1` (stereo not shown), the IC50 was over 10 µM.

As to `CC1=C(C(=O)OC(C)C(C)C)C(c2ccc(C)cc2)NC(=O)N1` (stereo not shown), the IC50 is over 10 µM.

On to `CCN(CC)C(=O)C1=C(C)NC(=S)NC1c1ccc(OC)cc1` (stereo not shown), for which the IC50 was over 10 µM.

For `CCOC(=O)C1=C(C)NC(=O)NC1c1ccc(F)cc1F` (stereo not shown), the half-inhibitory concentration (IC50) is over 10 µM.

Regarding `CCOC(=O)C1=C(CN2CC(C)CC(C)C2)NC(=O)NC1c1ccc(Cl)cc1` (stereo not shown), the IC50 was over 10 µM.

As for `C=CCOC(=O)C1=C(C)NC(=S)NC1c1cccc(OC)c1` (stereo not shown), the half-maximal inhibitory concentration (IC50) is at most 10 µM.

With `CC1=C(C(=O)OC(C)C)C(c2ccccc2Cl)NC(=S)N1` (stereo not shown), the IC50 is at most 10 µM.

For `C=CCOC(=O)C1=C(C)NC(=S)NC1c1ccccc1OCC` (stereo not shown), the IC50 is over 10 µM.

For `COC(=O)C1=C(CN2CCc3ccccc32)NC(=O)NC1c1cc(C)ccc1C` (stereo not shown), the IC50 was over 10 µM.

For the molecule `CCCOC(=O)C1=C(C)NC(=O)NC1c1cccc(Cl)c1` (stereo not shown), the IC50 is over 10 µM.

Turning to `CCCC1=C(C(=O)OCC)C(c2ccc([N+](=O)[O-])cc2)NC(=O)N1C` (stereo not shown), the IC50 was over 10 µM.

As to `COc1ccc(C2NC(=O)N(C)C(C)=C2C(=O)Nc2ccccc2C)cc1` (stereo not shown), the IC50 was over 10 µM.

Take `CCOC(=O)C1=C(C)N(C)C(=S)NC1c1ccccc1` (stereo not shown): the IC50 was over 10 µM.

`CC1=C(C(=O)Nc2ccc(Br)cc2)C(c2ccccc2)NC(=O)N1C` (stereo not shown): the IC50 was over 10 µM.

With `CC1=C(C(=O)OC(C)C)C(c2ccccc2F)NC(=S)N1` (stereo not shown), the IC50 is over 10 µM.

For `CC1=C(C(=O)OCC(F)(F)F)C(c2ccc(N(C)C)cc2)NC(=O)N1` (stereo not shown), the IC50 is over 10 µM.

As for `CC1=C(C(=O)N(C)C)C(c2ccc(C)cc2)NC(=S)N1` (stereo not shown), the IC50 is over 10 µM.

As to `COCCOC(=O)C1=C(C)NC(=S)NC1c1cccc(Br)c1` (stereo not shown), the IC50 is over 10 µM.

For the molecule `COC(=O)C1=C(C)NC(=O)NC1c1ccc(O)cc1` (stereo not shown), the IC50 is over 10 µM.

As to `CCOC(=O)C1=C(c2ccccc2)NC(=S)NC1c1ccc(SC)cc1` (stereo not shown), the IC50 was at most 5 µM.

Consider `CCOC(=O)C1=C(C)NC(=S)NC1c1cc(OC)ccc1Br` (stereo not shown), for which the IC50 was over 10 µM.

Take `CC1=C(C(=O)OCc2ccccc2)C(c2c(F)cccc2Cl)NC(=O)N1` (stereo not shown): the IC50 was over 10 µM.

For `CCOC(=O)C1=C(C)NC(=S)NC1c1ccc(CC)cc1` (stereo not shown), the IC50 is over 10 µM.

Take `CCN(CC)C(=O)C1=C(C)NC(=S)NC1c1ccc(Br)cc1` (stereo not shown): the IC50 was over 10 µM.

For the molecule `CCCC1=C(C(=O)OCC)C(c2ccc(Cl)cc2Cl)NC(=O)N1` (stereo not shown), the half-inhibitory concentration (IC50) was over 10 µM.

In the case of `CC1=C(C(=O)N2CCOCC2)C(c2ccc(Cl)cc2)NC(=O)N1` (stereo not shown), the IC50 is over 10 µM.

Consider `CCN(CC)C(=O)C1=C(C)NC(=S)NC1c1ccc(C)cc1` (stereo not shown), for which the half-maximal inhibitory concentration (IC50) is over 10 µM.

With `CCOC(=O)C1=C(C)NC(=O)NC1c1ccc(OCC)cc1` (stereo not shown), the IC50 was over 10 µM.

Turning to `CCOC(=O)C1=C(C(C)C)NC(=O)NC1c1ccc(F)cc1` (stereo not shown), the IC50 is over 10 µM.

For the molecule `COc1cc2c(cc1C1NC(=S)NC(C)=C1C(=O)N(C)C)CCCC2` (stereo not shown), the half-maximal inhibitory concentration (IC50) is over 10 µM.

With `CC1=C(C(=O)N2CCOCC2)C(c2cccc(F)c2)NC(=O)N1` (stereo not shown), the IC50 was at most 5 µM.

As for `CC1=C(C(=O)OC(C)C)C(c2ccc(C(C)(C)C)cc2)NC(=O)N1` (stereo not shown), the 50% inhibitory concentration (IC50) is over 10 µM.

On to `CC1=C(C(=O)OC(C)C)C(c2ccc(C(C)C)cc2)NC(=O)N1` (stereo not shown), for which the IC50 was over 10 µM.

Take `COC(=O)C1=C(C)N(C)C(=O)N(C)C1c1cccc([N+](=O)[O-])c1` (stereo not shown): the half-maximal inhibitory concentration (IC50) was over 10 µM.

Still in this test, the particulars now being: Table 2; read-out: hTRPA1 Fluor IC50.
As to `Cc1nn(Cc2ccccc2)c(C)c1CNC(=O)Cn1cnc2c1c(=O)n(C)c(=O)n2C` [Compound 339], the half-maximal inhibitory concentration (IC50) was over 10 µM.

On to `Cn1c(=O)c2c(ncn2CC(=O)Nc2ccccc2SCc2ccccc2)n(C)c1=O` [Compound 351], for which the IC50 was over 10 µM.

Regarding `Cn1c(=O)c2c(ncn2CC(=O)Nc2ccc3c(c2)OCCO3)n(C)c1=O` [Compound 246], the IC50 is over 10 µM.

As for `CC(C)N(c1ccccc1)c1ccc(NC(=O)Cn2cnc3c2c(=O)n(C)c(=O)n3C)cc1` [Compound 273], the IC50 is at most 10 µM.

With `CC(NC(=O)Cn1cnc2c1c(=O)n(C)c(=O)n2C)c1ccccc1` (stereo not shown) [Compound 220], the IC50 is over 10 µM.

With `Cn1c(=O)c2c(ncn2CC(=O)NCC(c2cccs2)N2CCCC2)n(C)c1=O` (stereo not shown) [Compound 312], the concentration for half-maximal inhibition (IC50) is over 10 µM.

For the molecule `CC(C(=O)Nc1ccccc1F)n1cnc2c1c(=O)n(C)c(=O)n2C` (stereo not shown) [Compound 334], the IC50 was over 10 µM.

Regarding `Cc1ccc(NC(=O)Cn2cnc3c2c(=O)n(C)c(=O)n3C)c(Cl)c1` [Compound 263], the IC50 was over 10 µM.

Turning to `Cn1c(=O)c2c(ncn2CC(=O)NCc2ccc3c(c2)OCO3)n(C)c1=O` [Compound 377], the IC50 is over 10 µM.

Regarding `CCn1c2ccccc2c2cc(NC(=O)Cn3cnc4c3c(=O)n(C)c(=O)n4C)ccc21` [Compound 254], the IC50 is over 10 µM.

Consider `CCOC(=O)c1ccccc1NC(=O)Cn1cnc2c1c(=O)n(C)c(=O)n2C` [Compound 362], for which the IC50 is over 10 µM.

With `CSc1ccccc1NC(=O)Cn1cnc2c1c(=O)n(C)c(=O)n2C` [Compound 316], the IC50 is over 10 µM.

`CCc1cccc(CC)c1NC(=O)Cn1cnc2c1c(=O)n(C)c(=O)n2C` [Compound 383]: the IC50 was over 10 µM.

Take `COC(=O)c1ccccc1NC(=O)Cn1cnc2c1c(=O)n(C)c(=O)n2C` [Compound 365]: the IC50 is over 10 µM.

Regarding `CCOC(=O)c1ccc(NC(=O)Cn2cnc3c2c(=O)n(C)c(=O)n3C)cc1` [Compound 366], the IC50 was at most 5 µM.

For the molecule `CC(C(=O)N(C)c1ccccc1)n1cnc2c1c(=O)n(C)c(=O)n2C` (stereo not shown) [Compound 301], the IC50 was over 10 µM.

Turning to `CC(C)N(C(=O)Cn1cnc2c1c(=O)n(C)c(=O)n2C)c1ccccc1` [Compound 336], the IC50 is over 10 µM.

Regarding `Cn1c(=O)c2c(ncn2CC(=O)Nc2ccccc2-c2nc3ccccc3[nH]2)n(C)c1=O` [Compound 260], the IC50 was over 10 µM.

For `CC(=O)c1ccc(NC(=O)Cn2cnc3c2c(=O)n(C)c(=O)n3C)cc1` [Compound 360], the IC50 is at most 10 µM.

In the case of `Cc1cc(C)n(CCCNC(=O)Cn2cnc3c2c(=O)n(C)c(=O)n3C)n1` [Compound 323], the IC50 was over 10 µM.

On to `Cc1ccccc1NC(=O)Cn1cnc2c1c(=O)n(C)c(=O)n2C` [Compound 358], for which the IC50 was over 10 µM.

As for `Cn1c(=O)c2c(ncn2CC(=O)NC(C)(C)C)n(C)c1=O` [Compound 289], the IC50 was over 10 µM.

With `CSc1ccccc1NC(=O)CN(C)C(=O)Cn1cnc2c1c(=O)n(C)c(=O)n2C` [Compound 311], the half-inhibitory concentration (IC50) is over 10 µM.

For orientation: IC50 means the concentration needed to halve the response being measured.
